Values quoted from earlier work as cited in patent publication US7439256B2, “(Arylamidoaryl) cyanoguanidine compounds” (priority 2004, dated 2008).
Structures can show the parent of a compound that is named as a salt.

Tested on: MO7e human leukemia cells

Cc1ccc(NC(=O)c2ccc(CN3CCN(C)CC3)cc2)cc1Nc1nccc(-c2cccnc2)n1 [Gleevec, imatinib mesylate]
GM-CSF stimulated growth of MO7e human leukemia cells (GM-CSF stimulated): not affected | Kit ligand-stimulated growth of MO7e human leukemia cells (Kit ligand-stimulated): inhibited | apoptosis in MO7e human leukemia cells (Kit ligand-stimulated conditions): induces apoptosis
